Tests used:
[1] = target: 5-hydroxytryptamine receptor 2A (Rattus norvegicus, UniProt P14842); assay: Binding affinity against 5-hydroxytryptamine 2A receptor by displacement of [3H]-ketanserin from rat prefrontal cerebral cortex mambranes; format: tissue-based, Frontal cortex
[2] = target: T1, 5-hydroxytryptamine receptor 1A (Rattus norvegicus, UniProt P19327); assay: Binding affinity against 5-hydroxytryptamine 1A receptor (5-HT1A) by displacement of [3H]8-OH-DPAT from rat hippocampus membranes; format: cell membranes, Membrane
T1 sequence (P19327 whole entry): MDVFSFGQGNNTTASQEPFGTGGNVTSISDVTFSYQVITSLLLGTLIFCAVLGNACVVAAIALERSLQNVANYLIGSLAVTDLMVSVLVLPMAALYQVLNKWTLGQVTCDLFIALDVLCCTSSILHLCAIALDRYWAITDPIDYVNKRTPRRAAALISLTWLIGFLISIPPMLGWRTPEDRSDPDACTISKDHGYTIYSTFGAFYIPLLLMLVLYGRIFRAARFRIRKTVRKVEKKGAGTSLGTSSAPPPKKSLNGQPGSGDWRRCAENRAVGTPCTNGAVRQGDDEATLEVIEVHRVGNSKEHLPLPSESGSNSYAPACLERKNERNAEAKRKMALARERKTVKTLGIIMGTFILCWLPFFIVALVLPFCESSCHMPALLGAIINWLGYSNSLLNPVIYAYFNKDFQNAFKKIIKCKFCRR

[3] = target: T2, Sodium-dependent serotonin transporter (Rattus norvegicus, UniProt P31652); assay: Binding affinity to the serotonin transporter (SERT) measured by displacement of [3H]paroxetine in male wistar rats
T2 sequence (P31652 whole entry): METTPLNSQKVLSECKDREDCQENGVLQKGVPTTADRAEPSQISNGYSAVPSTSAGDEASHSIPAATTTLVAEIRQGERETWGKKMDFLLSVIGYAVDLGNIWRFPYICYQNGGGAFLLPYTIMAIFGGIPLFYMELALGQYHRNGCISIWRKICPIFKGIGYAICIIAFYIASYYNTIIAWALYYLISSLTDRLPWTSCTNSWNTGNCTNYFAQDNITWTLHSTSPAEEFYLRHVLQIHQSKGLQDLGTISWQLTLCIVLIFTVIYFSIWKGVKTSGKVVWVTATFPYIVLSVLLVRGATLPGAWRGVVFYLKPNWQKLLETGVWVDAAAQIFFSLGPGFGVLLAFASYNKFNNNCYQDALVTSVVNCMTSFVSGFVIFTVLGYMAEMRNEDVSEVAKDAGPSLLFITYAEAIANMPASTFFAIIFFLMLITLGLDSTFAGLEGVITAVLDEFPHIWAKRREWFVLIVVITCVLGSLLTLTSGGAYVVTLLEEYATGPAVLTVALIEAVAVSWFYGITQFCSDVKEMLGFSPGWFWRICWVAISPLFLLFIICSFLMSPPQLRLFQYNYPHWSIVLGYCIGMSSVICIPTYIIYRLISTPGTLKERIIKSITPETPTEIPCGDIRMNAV

[4] = target: T2, Sodium-dependent serotonin transporter; assay: Binding affinity against serotonin transporter (SERT) by displacement of [3H]paroxetine in male wistar rats

Chain of 5-hydroxytryptamine receptor 2A (P14842 whole entry): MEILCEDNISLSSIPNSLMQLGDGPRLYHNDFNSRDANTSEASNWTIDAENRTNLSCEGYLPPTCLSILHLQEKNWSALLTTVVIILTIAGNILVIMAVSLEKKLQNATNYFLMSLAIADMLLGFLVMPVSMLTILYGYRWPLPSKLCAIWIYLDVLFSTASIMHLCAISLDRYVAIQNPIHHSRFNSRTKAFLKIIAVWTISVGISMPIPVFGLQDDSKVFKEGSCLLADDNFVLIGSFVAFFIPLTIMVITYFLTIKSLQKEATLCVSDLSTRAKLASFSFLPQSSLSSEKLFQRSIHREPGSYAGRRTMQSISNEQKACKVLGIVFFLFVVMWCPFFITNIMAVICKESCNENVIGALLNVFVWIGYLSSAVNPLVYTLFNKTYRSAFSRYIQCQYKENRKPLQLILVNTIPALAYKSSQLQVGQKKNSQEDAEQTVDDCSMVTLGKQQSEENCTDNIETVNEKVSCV

SMILES	IC50 [1]	IC50 [2]	Ki [3]	IC50 [4]
Fc1ccc(C(Oc2ccccc2)C2CCCNC2)cc1 (stereo unspecified)	> 1000 nM	> 1000 nM	40.6 nM	–
N#Cc1ccc(OC(c2ccc(F)cc2)C2CCCNC2)cc1 (stereo unspecified)	> 1000 nM	> 1000 nM	40 nM	–
Oc1cc(F)cc(OC(c2ccccc2)C2CCNCC2)c1 (stereo unspecified)	> 1000 nM	> 1000 nM	2 nM	–
Ic1ccc(OC(c2ccccc2)C2CCNCC2)cc1 (stereo unspecified)	> 1000 nM	> 1000 nM	20.6 nM	–
Ic1cccc(OC(c2ccccc2)C2CCNCC2)c1 (stereo unspecified)	> 1000 nM	> 1000 nM	3.7 nM	–
COc1ccc(OC(c2ccc(F)cc2)C2CCNCC2)cc1 (stereo unspecified)	> 1000 nM	> 1000 nM	0.9 nM	–
N#Cc1ccc(OC(CC2CCNCC2)c2ccc(F)cc2)cc1 (stereo unspecified)	> 1000 nM	> 1000 nM	16.9 nM	–
COc1ccc(OC(c2ccc(F)cc2)C2CCCNC2)cc1 (stereo unspecified)	> 1000 nM	> 1000 nM	20.8 nM	–
Fc1ccc(C(Oc2ccc(Cl)c(Cl)c2)C2CCCNC2)cc1 (stereo unspecified)	> 1000 nM	> 1000 nM	32.2 nM	–
Brc1cccc(OC(c2ccccc2)C2CCNCC2)c1 (stereo unspecified)	> 1000 nM	> 1000 nM	10 nM	–
Fc1ccc(C(Oc2ccc3c(c2)OCO3)C2CCCNC2)cc1 (stereo unspecified)	> 1000 nM	> 1000 nM	4.2 nM	–
COc1cc2c(cc1OC)CN(CCC(Oc1ccccc1F)c1ccccc1)CC2 (stereo unspecified)	> 1000 nM	> 1000 nM	207 nM	–
Fc1ccc(C(Oc2ccc(C(F)(F)F)cc2)C2CCCNC2)cc1 (stereo unspecified)	> 1000 nM	> 1000 nM	26.2 nM	–
Clc1ccc(OC(c2ccccc2)C2CCNCC2)cc1Cl (stereo unspecified)	> 1000 nM	> 1000 nM	9.9 nM	–
Fc1ccccc1OC(CCN1CCc2ccccc2C1)c1ccccc1 (stereo unspecified)	> 1000 nM	> 1000 nM	–	> 1000 nM
FC(F)(F)c1cccc(OC(c2ccccc2)C2CCNCC2)c1 (stereo unspecified)	> 1000 nM	> 1000 nM	9 nM	–
Fc1ccc(OC(c2ccc(Cl)cc2)C2CCNCC2)cc1 (stereo unspecified)	> 1000 nM	> 1000 nM	7.5 nM	–
N#Cc1ccccc1OC(c1ccccc1)C1CCNCC1 (stereo unspecified)	> 1000 nM	> 1000 nM	105 nM	–
Cc1c(F)cccc1OC(c1ccccc1)C1CCNCC1 (stereo unspecified)	> 1000 nM	> 1000 nM	5.3 nM	–
Cc1ccc(Cl)cc1OC(c1ccccc1)C1CCNCC1 (stereo unspecified)	> 1000 nM	> 1000 nM	15.6 nM	–
Cc1c(Cl)cccc1OC(c1ccccc1)C1CCNCC1 (stereo unspecified)	> 1000 nM	> 1000 nM	12.2 nM	–
Oc1c(F)cccc1OC(c1ccccc1)C1CCNCC1 (stereo unspecified)	> 1000 nM	> 1000 nM	15.5 nM	–
Fc1ccc(C(Oc2ccc(Cl)cc2)C2CCCNC2)cc1 (stereo unspecified)	> 1000 nM	> 1000 nM	13.9 nM	–
Clc1ccc(C(Oc2ccccc2)C2CCNCC2)cc1 (stereo unspecified)	> 1000 nM	> 1000 nM	19.4 nM	–
Fc1ccc(OC(c2ccc(F)cc2)C2CCCNC2)cc1 (stereo unspecified)	> 1000 nM	> 1000 nM	23.4 nM	–
COc1ccc(OC(CC2CCNCC2)c2ccccc2)cc1 (stereo unspecified)	> 1000 nM	> 1000 nM	47 nM	–
FC(F)(F)c1ccc(OC(c2ccccc2)C2CCNCC2)cc1 (stereo unspecified)	> 1000 nM	> 1000 nM	17.1 nM	–
FC(F)(F)c1ccccc1OC(c1ccccc1)C1CCNCC1 (stereo unspecified)	> 1000 nM	> 1000 nM	124 nM	–

SMILES	IC50 [1]	IC50 [2]	Ki [3]	IC50 [4]
Clc1ccccc1OC(c1ccccc1)C1CCNCC1 (stereo unspecified)	> 1000 nM	> 1000 nM	8.2 nM	–
N#Cc1cc(F)cc(OC(c2ccccc2)C2CCNCC2)c1 (stereo unspecified)	> 1000 nM	> 1000 nM	2.6 nM	–
Fc1ccc(OC(c2ccc(F)cc2)C2CCNCC2)cc1 (stereo unspecified)	> 1000 nM	> 1000 nM	0.9 nM	–
Oc1ccc(OC(c2ccccc2)C2CCNCC2)cc1F (stereo unspecified)	> 1000 nM	> 1000 nM	21.3 nM	–
COc1cc(F)cc(OC(c2ccccc2)C2CCNCC2)c1 (stereo unspecified)	> 1000 nM	> 1000 nM	1.9 nM	–
Cc1ccc(OC(c2ccc(F)cc2)C2CCCNC2)cc1 (stereo unspecified)	> 1000 nM	> 1000 nM	22.6 nM	–
COc1cc2c(cc1OC)CN(CCC(Oc1ccccc1C(F)(F)F)c1ccccc1)CC2 (stereo unspecified)	> 1000 nM	> 1000 nM	134 nM	–
Cc1ccc(C(Oc2cccc(F)c2)C2CCNCC2)cc1 (stereo unspecified)	> 1000 nM	> 1000 nM	14.1 nM	–
Fc1ccc(C(Oc2cccc3ccccc23)C2CCCNC2)cc1 (stereo unspecified)	> 1000 nM	> 1000 nM	21.5 nM	–
N#Cc1ccc(OC(c2ccccc2)C2CCNCC2)cc1Cl (stereo unspecified)	> 1000 nM	> 1000 nM	3.9 nM	–
c1ccc(OC(c2ccccc2)C2CCNCC2)cc1 (stereo unspecified)	> 1000 nM	> 1000 nM	2.3 nM	–
Fc1ccc(OC(c2ccccc2)C2CCNCC2)cc1 (single isomer, unassigned; (-))	> 1000 nM	> 1000 nM	–	–
Fc1cc(F)cc(OC(c2ccccc2)C2CCNCC2)c1 (stereo in doubt; 15aj)	> 1000 nM	> 1000 nM	3.4 nM	–
c1ccc(C(Oc2cccc3ccccc23)C2CCNCC2)cc1 (stereo in doubt; 15au)	> 1000 nM	> 1000 nM	8.3 nM	–
Fc1ccccc1OC(c1ccccc1)C1CCNCC1 (stereo in doubt; 15b)	> 1000 nM	> 1000 nM	6.3 nM	–
Fc1cccc(OC(c2ccccc2)C2CCNCC2)c1 (stereo in doubt; 15j)	> 1000 nM	> 1000 nM	–	–
N#Cc1cccc(OC(c2ccccc2)C2CCNCC2)c1 (stereo in doubt; 15k)	> 1000 nM	> 1000 nM	1 nM	–
Clc1cccc(OC(c2ccccc2)C2CCNCC2)c1 (stereo in doubt; 15l)	> 1000 nM	> 1000 nM	–	–
O=[N+]([O-])c1ccc(OC(c2ccccc2)C2CCNCC2)cc1 (stereo in doubt; 15m)	> 1000 nM	> 1000 nM	2.4 nM	–
Fc1ccc(OC(c2ccccc2)C2CCNCC2)cc1 (stereo in doubt; 15p)	> 1000 nM	> 1000 nM	1.1 nM	–
Brc1ccc(OC(c2ccccc2)C2CCNCC2)cc1 (stereo in doubt; 15r)	> 1000 nM	> 1000 nM	2 nM	–
Fc1cccc(C(Oc2ccccc2F)C2CCNCC2)c1 (stereo in doubt; 15t)	> 1000 nM	> 1000 nM	9.3 nM	–
Fc1cccc(OC(c2cccc(F)c2)C2CCNCC2)c1 (stereo in doubt; 15u)	> 1000 nM	> 1000 nM	16.1 nM	–
Fc1cccc(OC(c2cccc(F)c2)C2CCNCC2)c1 (stereo in doubt; (-)-15u)	> 1000 nM	> 1000 nM	–	–
CNCCC(Oc1ccccc1OC)c1ccccc1 (stereo unspecified) [NISOXETINE]	> 1000 nM	> 1000 nM	–	–
Fc1ccc([C@@H]2CCNC[C@H]2COc2ccc3c(c2)OCO3)cc1 [PAROXETINE]	–	> 1000 nM	–	–
COc1ccc(C(CN(C)C)C2(O)CCCCC2)cc1 (stereo unspecified) [VENLAFAXINE]	–	> 1000 nM	–	–
